Test results as given in patent publication US12006278B1, “4,4′-naphthalene-1,5-diylbis(diazene-2,1-diyl)diphenol as an antioxidant compound” (KING FAISAL UNIVERSITY, priority 2023, dated 2024).

Assay: DPPH radical scavenging antioxidant test
Conditions: 517 nm; for Inhibition (radical scavenging inhibition): compound 3 μM in ethanol + 0.2 mL DPPH (0.75 mM), 30 min incubation in the dark
Experimental: The antioxidant properties of the 4,4′-naphthalene-1,5-diylbis(diazene-2,1-diyl)diphenol were studied by adding 0.2 mL DPPH (0.75 mM)) to compound 4,4′-naphthalene-1,5-diylbis(diazene-2,1-diyl)diphenol (III) (3 μM) in ethanol. After 30 min of incubation in the dark, the absorbance was read against a blank at 517 nm. Ascorbic acid (vitamin C) was used as standard antioxidants (positive control). A blank sample was prepared by 0.2 ml of DPPH in 3 ml ethanol. A negative control sample was run using ethanol instead of the sample. The radical scavenging inhibition was calculated using the following equation: […]

SMILES | antioxidant potential compared to vitamin C (result in words) (DPPH in vitro test, vitamin C as positive control) | Inhibition (radical scavenging inhibition) [%]
Oc1ccc(/N=N\c2cccc3c(/N=N/c4ccc(O)cc4)cccc23)cc1 [Product III, 4,4′-naphthalene-1,5-diylbis(diazene-2,1-diyl)diphenol] | high potential as an antioxidant | 54
O=C1O[C@H]([C@@H](O)CO)C(O)=C1O [vit c, Ascorbic acid, reference compound] | – | 74
